From patent US20160166604A1, “Thiol-Sensitive Positive Inotropes” (priority 2005, published 2016)
Where “and” joins values, the source holds several entries; their conditions need not be identical. Identical values can stand only once. Entries after “also recorded” stand apart in the source; their conditions may differ.

Columns and labels:
[1] = End-diastolic pressure-volume relationship (EDPVR) in chronically instrumented dogs with pacing-induced cardiac failure; type: in vivo; details: CHF dog preparations
Experimental: Adult male mongrel dogs (22-25 kg) were chronically instrumented for pressure-dimension analysis as described. See, Paolocci et al., “Positive Inotropic and Lusitropic Effects of HNO/NO− in Failing Hearts: Independence from Beta-Adrenergic Signaling,” Proc. Natl. Acad. Sci. USA., 100, 5537-5542 (2003); and Senzaki et al., Circulation, 101, 1040-1048 (2000). Animals were anesthetized with 1% to 2% halothane after induction with sodium thiopental (10-20 mg/kg, i.v.). The surgical/experimental animal protocol was approved by the Johns Hopkins University Animal Care and Use Committee. […] Cardiac failure was induced by rapid ventricular pacing for 3 weeks as described. See, Paolocci et al., supra, and Senzaki et al., supra.
Hemodynamic data were digitized at 250 Hz. […] These relations strongly correlate with results from pressure-volume data in normal and failing hearts, as previously validated. Cardiovascular function was assessed by stroke dimension, fractional shortening (stroke dimension/end-diastolic dimension [EDD]), estimated cardiac output (stroke dimension×HR), peak rate of pressure rise (dP/dtmax), end-systolic elastance (Ees, slope of end-systolic pressure-dimension relation [ESPDR]), the slope of dP/dtmax-EDD relation (DEDD) (see, Little, Circ Res., 56:808-815 (1985)), pre-recruitable stroke work (PRSW), (based on dimension-data), estimated arterial elastance (Ea, end systolic pressure/stroke dimension) and estimated total resistance (RT, […]). Ees, DEDD and PRSW provide load-insensitive contractility measures.
The end-diastolic pressure-volume relationship (EDPVR) was determined applying non-linear regression analysis to the end-diastolic pressure and volume points (Ped and Ved, respectively), according to Kass, Cardiol Clin., 18, 571-86 (2000) (Review).
In order to evaluate the impact of each pharmacological intervention on the EDPVR, changes in end-diastolic pressure from baseline (ΔPed) at volumes providing baseline end-diastolic pressure of […] mmHg EDP (V10, V15, V20, respectively) were determined (FIG. 5).

SERCA2a = target: T1, SERCA2a (Canis lupus familiaris, UniProt O46674); assay: Ca-ATPase partial reactions and Vmax in cardiac SR vesicles from normal and failing dog hearts; type: biochemical; details: for stimulation of maximal Ca-ATPase activity compared to control / spontaneous E2P hydrolysis rate: 0.25 mM AS; for stimulation of maximal Ca-ATPase activity compared to control: 2.5 mM oxalate
T1 construct: sealed cardiac sarcoplasmic reticulum (CSR) membrane vesicles isolated from normal (N) and failing (F); from tissue; host or cells: dog heart, normal and tachy-pacing-induced failing (sealed cardiac SR vesicles)
T1 sequence (O46674 whole entry): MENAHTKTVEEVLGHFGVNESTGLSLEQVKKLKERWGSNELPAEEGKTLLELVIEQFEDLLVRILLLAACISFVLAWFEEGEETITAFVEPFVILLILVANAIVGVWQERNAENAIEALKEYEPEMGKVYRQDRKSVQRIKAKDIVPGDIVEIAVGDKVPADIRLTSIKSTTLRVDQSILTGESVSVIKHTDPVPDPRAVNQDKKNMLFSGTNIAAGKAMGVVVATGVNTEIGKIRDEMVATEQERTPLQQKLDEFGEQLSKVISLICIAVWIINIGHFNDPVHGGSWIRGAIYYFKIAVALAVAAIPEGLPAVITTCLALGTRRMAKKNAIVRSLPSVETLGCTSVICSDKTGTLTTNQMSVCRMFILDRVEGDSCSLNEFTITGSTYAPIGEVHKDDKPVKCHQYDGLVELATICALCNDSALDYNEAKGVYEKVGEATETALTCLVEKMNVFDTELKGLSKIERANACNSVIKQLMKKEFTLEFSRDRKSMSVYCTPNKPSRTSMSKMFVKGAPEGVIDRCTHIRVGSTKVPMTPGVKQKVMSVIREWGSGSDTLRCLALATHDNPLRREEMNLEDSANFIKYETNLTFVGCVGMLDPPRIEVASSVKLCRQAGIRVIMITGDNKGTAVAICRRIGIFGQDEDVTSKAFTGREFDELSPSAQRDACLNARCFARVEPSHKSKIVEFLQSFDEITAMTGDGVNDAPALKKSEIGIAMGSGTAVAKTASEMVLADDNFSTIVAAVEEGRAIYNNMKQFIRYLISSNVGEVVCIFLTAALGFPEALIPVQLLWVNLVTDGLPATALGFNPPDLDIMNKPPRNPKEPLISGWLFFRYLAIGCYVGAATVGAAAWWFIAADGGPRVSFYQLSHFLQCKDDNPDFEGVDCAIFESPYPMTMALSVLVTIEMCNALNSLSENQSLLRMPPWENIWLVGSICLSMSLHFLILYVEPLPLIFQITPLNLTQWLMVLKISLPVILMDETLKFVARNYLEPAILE
Experimental: The effect of AS on Ca-ATPase partial reactions and Vmax was measured in sealed cardiac sarcoplasmic reticulum (CSR) membrane vesicles isolated from normal (N) and failing (F) (tachy-pacing-induced) dog hearts. […] In the presence of 2.5 mM oxalate (Ca^2+-loading conditions), 0.25 mM AS stimulated maximal Ca-ATPase activity in N and F CSR (4% vs. 9% compared to control). […] This relieves back inhibition of SERCA2a by the Ca^2+ transport gradient, increasing Vmax.

[2] = system: isolated mouse ventricular myocytes; assay: Sarcomere shortening in field-stimulated isolated mouse ventricular myocytes; type: cell-based
Experimental: Wild type 2-4 month old mice were anesthetized with intraperitoneal pentobarbital sodium (100 mg/kg/ip). Hearts were perfused as previously described. Mongillo, M. et al., Circ. Res., 98, 226-234 (2006). To assess for sarcomere shortening, cells were imaged using field stimulation (Warner instruments) in an inverted fluorescence microscope (Diaphot 200; Nikon, Inc). Sarcomere length was measured by real-time Fourier transform (IonOptix MyoCam, CCCCD100M) and cell twitch amplitude is expressed as a percentage of resting cell length. Twitch kinetics was quantified by measuring the time to peak shortening and the time from peak shortening to 50% relaxation. For whole calcium transient measurements, myocytes were loaded with the Ca^2+ indicator fluo-4/AM (Molecular Probes, 20 μM for 30 min) and Ca^2+ transients were measured under field-stimulation at 0.5 Hz in perfusion solution by confocal laser scanning microscope (LSM510, Carl Zeiss). Digital image analysis used customer-designed programs coded in Interactive Data Language (IDL).
Nitroxyl (HNO) confers positive inotropy in vivo. Here, it was determined whether HNO action stems from a direct influence on sarcoplasmic reticulum (SR) Ca^2+ cycling, involving enhanced Ca^2+ release from ryanodine receptors (RyR2). Myocytes were isolated from ST mice, suspended in Tyrode's solution (1 mM Ca^2+) and field stimulated (0.5 Hz, 25° C.). Sarcomere shortening (SS) was assessed by real-time image analysis, Ca^2+ transients from Indo-1 fluorescence. RyR2 activity was determined by optical imaging of Ca^2+ release from single Ca^2+ release units.

Vmax stimulation in presence of Ca2+ ionophore A23187 (SERCA2a; AS with A23187): abolished
stimulation of maximal Ca-ATPase activity compared to control (SERCA2a; F CSR): 9%
stimulation of maximal Ca-ATPase activity compared to control (SERCA2a; N CSR): 4%
Vmax stimulation (SERCA2a; N CSR, AS, without oxalate): 27%
spontaneous E2P hydrolysis rate (SERCA2a; failing (F) CSR, without AS 11): 111 s⁻¹
spontaneous E2P hydrolysis rate (SERCA2a; normal (N) CSR, without AS 12): 76 s⁻¹
increase in sarcomere shortening with guanylate cyclase inhibition ([2]; AS 1 mM with ODQ, n=15, p=NS vs. AS 1 mM): 157±40%
Structure (SMILES): [Na+].[Na+].[O-][N+]([O-])=NO [AS, Angeli's salt]
effect on end-diastolic pressure-volume relationship (EDPVR) [1]: declined significantly
myocyte relaxation hastened (time to 50% re-lengthening) ([2]; AS): 10-20%
time until response plateaued ([2]; AS): 10 to 15 min
increase in sarcomere shortening ([2]; AS 0.5 mM): 73±31% and ~100%
contractility response (sarcomere shortening) after GSH pre-treatment ([2]; AS 0.5 mM after GSH ethyl ester 4 mM for 3 hrs): 57±19%
increase in sarcomere shortening ([2]; AS 1 mM): 131±31% and 117±25% and ~100%
AS concentration above which myocyte contractility rose ([2]; AS 10^-6 to 10^-3 M, C57/BL6 myocytes): > 100 µM
effect on sarcomere shortening ([2]; AS <0.1 mM): no effect
effect of co-application on ISO (2.5 nM)-stimulated sarcomere shortening ([2]; DEA/NO 0.25 mM, AS 0.5 mM): doubled
sarcomere shortening response after GSH pre-incubation ([2]; GSH 4 mM for 3 hrs, compared with 1 mM AS alone, n=14): 58±19%
AS inotropy on co-infusion of N-acetyl-L-cysteine ([2]; NAC 3 mM): abolished
effect of PKG inhibitor Rp-8Br-cGMPs on the agent's inotropy ([2]; Rp-8Br-cGMPs 10 μM pre-treatment): did not alter; also recorded: no impact
effect of PKA inhibitor Rp-CPT-cAMPs on the agent's enhancement of sarcomere shortening ([2]; Rp-CPT-cAMPs 100 μM pre-treatment): did not alter
reversibility of response after discontinuation ([2]; at ≦500 μM, after a similar time period): fully reversible
AS inotropy on co-treatment with thapsigargin ([2]; thapsigargin 3 μM, n=16): 52±14%
